For this assay, the system named is endothelin-1. As to the kind of experiment: Endothelin-1 concentration in blood (ELISA) before and after a 75-g OGTT during 12-week daily jelly ingestion. It is filed as in vivo, human. To be noted: for endothelin-1 concentration at 60 minutes and 120 minutes after the 75-g OGTT compared to before the 75-g OGTT: healthy middle to elderly persons. As to the method:
Subjects were 54 healthy middle to elderly persons (30 males and 24 females). All subjects were assigned to one of the groups, i.e., an isomaltulose ingestion group (Group I) and a sucrose ingestion group (Group S), in a single blind test before intervention, and the intervention was performed for 12 weeks each.
All subjects ingested jellies having compositions described in Table 1 once a day for 12 weeks continuously. Group I received a jelly containing isomaltulose (Example 1), and group S received a jelly containing sucrose (Comparative Example 1). The jelly was taken every morning before breakfast, and all subjects were instructed not to change their dietary habits during the intervention period from those before the intervention. A 75 g oral glucose tolerance test (75-g OGTT, described in detail below) was performed before the 12-week intervention and at 4 weeks, 8 weeks, and 12 weeks after the start of the intervention, after the lapse of 1 day or more from the ingestion of the jelly and the secretion amount of endothelin-1 was evaluated by the method described below before the 75-g OGTT and at 60 minutes and 120 minutes after the 75-g OGTT.
The 75-g OGTT was performed under the instruction of a doctor using TRELAN- G 75 g (Yoshindo Inc.), which is generally used in medical institutions and research, and the test solution was orally ingested in a general volume (225 mL per dose) within 5 minutes according to the guidelines of the Japan Diabetes Society (Araki E, Goto A, Kondo T, Noda M, Noto H, Origasa H, et al. Japanese Clinical Practice Guideline for Diabetes 2019. J Diabetes Investig 2020; 11: 1020-1076.).
For all subjects, blood was collected from the cubital vein in a fasting state for 12 hours or more in a hygienic environment. Before ingestion of a carbohydrate solution for the 75-g OGTT and at 60 minutes and 120 minutes after the ingestion, a nurse collected blood (15 to 20 mL per collection) using a sterilized disposable blood collection needle under the instruction of a doctor. A sample after blood collection was immediately centrifuged at 4°C and 3000 rpm for 15 minutes, and the concentration of endothelin-1 was measured by ELISA (enzyme-linked immunosorbent assay) using a test kit (Cayman Chemical, Ann Arbor) for measuring the concentration of endothelin-1.
A change in endothelin-1 concentration before and after the start of the intervention of each group was shown as the average value (95% confidence interval). For the comparison of the change in endothelin-1 concentration between the 2 groups before and after the 75-g OGTT, a two-way repeated measures ANOVA was used. The Bonferroni method was performed for comparison of changes in each intervention in post-hoc test. The total area under the curve at 90 minutes (endothelin-1 concentration AUC) was calculated using the trapezoidal rule. For statistical analysis, IBM SPSS Statistics Ver. 25 (manufactured by IBM Corporation) was used. The statistical significance level in this test was set at 5%.
On the technique in general: An ELISA detects its analyte on a solid surface through an enzyme-linked reagent.

Where [1] appears, read: jelly with 25 g once a day, oral, at 4, 8, and 12 weeks after the start of the intervention.

Turning to “6-O-α-D-glucopyranosyl-D-fructose [isomaltulose]”, the “secretion of endothelin-1 (overall conclusion)” value (after 75-g OGTT at 4, 8, and 12 weeks after the start of the intervention, Group I versus Group S) is on record as “inhibited the secretion of endothelin-1”. Besides, the “endothelin-1 concentration at 60 minutes and 120 minutes after the 75-g OGTT compared to before the 75-g OGTT” value under setting [1] was “no significant change”. For the same compound, where the note is “jelly with 25 g once a day, oral, at 4, 8, and 12 weeks after the start of the intervention, p < 0.01”, the “endothelin-1 concentration before the 75-g OGTT and at 60 minutes and 120 minutes after the 75-g OGTT, Group I versus Group S” value was “significantly lower value”. Besides, the “endothelin-1 concentration AUC, Group I versus Group S” value (jelly with 25 g once a day, oral, at 4, 8, and 12 weeks after the start of the intervention, trapezoidal rule, p < 0.01) is “significantly lower value”.

Regarding `OC[C@H]1O[C@@](CO)(O[C@H]2O[C@H](CO)[C@@H](O)[C@H](O)[C@H]2O)[C@@H](O)[C@@H]1O` [sucrose, reference compound], the “endothelin-1 concentration at 60 minutes and 120 minutes after the 75-g OGTT compared to before the 75-g OGTT” value under setting [1] is recorded as “significantly increased”.

Source of the values: patent publication EP4620312A1, “ENDOTHELIN-1 SECRETION INHIBITOR” (Mitsui DM Sugar Co., Ltd., priority 2022, dated 2024).
